Measurements reported in US6458962B1, “Sultams: catalyst systems for asymmetric reduction of a C=N intermediate biological compositions and methods for making the sultams” (The University of Tennesseee Research Corporation, priority 1999, dated 2002).

Key:
[1] = IC50 in the National Cancer Institute anti-HIV protocol (Weislow et al.), used with EC50 for the TI50; format: cell-based; conditions: NCI protocol; read-out: ICSO
Procedure: (§1) The sultams of the invention were tested in accordance with the National Cancer Institute Protocol, Weislow, O. W., et al. (1989) J. Natl. Cancer Inst. 81:577-586, which is incorporated herein by reference. The protocol is also described in U.S. Pat. No. 5,843,990.

HIV-1 = test: Anti-HIV-1 activity, National Cancer Institute protocol (Weislow et al.); format: cell-based; conditions: for EC50: Human immunodeficiency virus 1, read-out: ECSO; for TLSO: ratio IC50/EC50, NCI protocol
Procedure: as §1
The anti-HIV activity of compounds of the invention illustrated by the formula V shown above, is reported below.
Table III illustrates anti-HIV-1 activities of compounds of the invention, the substituents (shown in formula V).

SMILES	IC50 [1] [µM]	melting point [°C]	EC50 (HIV-1) [µM]	TLSO (HIV-1)
Cc1ccccc1C1c2ccccc2S(=O)(=O)N1C (single isomer, unassigned; (+)) [Compound 18, (+)-2-Methyl-3-(2-methylphenyl)-2,3-dihydrobenzo[d]isothiazole 1,1-Dioxide]	123	152	4.68	26.3
CN1[C@@H](c2cccc(Cl)c2)c2ccccc2S1(=O)=O [Compound 11, (+)-(S)-3-(3-Chlorophenyl)-2-methyl-2,3-dihydrobenzo[d]isothiazole 1,1-Dioxide]	> 2	164	0.086	>31
Cc1cccc(C2c3ccccc3S(=O)(=O)N2C)c1 (single isomer, unassigned; (+)) [Compound 7, (+)-2-Methyl-3-(3-methylphenyl)-2,3-dihydrobenzo[d] isothiazole 1,1-Dioxide]	> 2	154	0.037	>54
CN1C(c2cccc(F)c2)c2ccccc2S1(=O)=O (single isomer, unassigned; (+)) [Compound 13, (+)-3-(3-Fluorophenyl)-2-methyl-2,3-dihydrobenzo[d]isothiazole 1,1-Dioxide]	147	147	0.179	538
CN1[C@@H](c2cccc(I)c2)c2ccccc2S1(=O)=O [Compound 15, (+)-(S)-2-Methyl-3-(3-iodophenyl)-2,3-dihydrobenzo[d]isothiazole 1,1-Dioxide]	62.4	156	0.076	817
CN1[C@@H](c2cccc(Br)c2)c2ccccc2S1(=O)=O [Compound 9, (+)-(S)-3-(3-Bromophenyl)-2-methyl-2,3-dihydrobenzo[d]isothiazole 1,1-Dioxide]	101	157	0.074	136.5
CN1[C@@H](c2ccccc2)c2ccccc2S1(=O)=O [Compound 5, (+)-(S)-2-Methyl-3-phenyl-2,3-dihydrobenzo[d]isothiazole 1,1-Dioxide]	> 316	156 to 157	0.471	>674
